From paper PMC2661360 (PLoS ONE, 2009)
Entries after “also recorded” stand apart in the source; their conditions may differ. Square brackets hold non-standard residues; d marks the D form. Peptide text beside a SMILES is read from it. * marks the point of attachment. Sta = CC(C)C[C@H](N)[C@@H](O)CC(=O)O; Isovaleryl = CC(C)CC(=O)*

Key:
Saccharomyces cerevisiae = experiment: Degradation of Hst-5 by Saccharomyces cerevisiae; conditions: compared to C. albicans (Figure S2)
[1] = test system: cell-free supernatants of C. albicans cell suspensions; experiment: Degradation assay of Hst-5 with cell-free supernatants; parameters: species or system Candida albicans; conditions: C. albicans supernatant compared to whole C. albicans cells; SDS-PAGE (Figure 3C)
Method: Degradation assays were performed by incubating Hst-5 with 100 µl of standardized cell concentrations of the C. albicans strains in PBS for 2 h at 37°C. Unless otherwise stated, C. albicans strains were used in experiments at a cell concentration of 2×10^8 cells/ml (generating two visible bands). Protease K was used as a positive control and negative controls with peptide and no C. albicans were included. Following incubation, samples were collected, heated at 100°C to remove proteolytic activity and analyzed by sodium dodecyl sulfate polyacrylamide gel electrophoresis (SDS-PAGE). Experiments were also performed using increasing C. albicans cell densities and at different time points where samples were collected following 20, 60 and 120 minutes incubation. In addition, assays were performed using cell-free supernatants from C. albicans cell suspensions to determine whether the proteolytic substance is secreted.

C. albicans whole cells = experiment: Degradation assay of Hst-5 with C. albicans whole cells; parameters: species or system Candida albicans
Method: (§1) The C. albicans SC5314 strain, the C. albicans SAP null mutants sap1–3 triple mutant (lacking SAP1–3), sap4–6 triple mutant (lacking SAP4–6), sap9 single mutant (lacking SAP9), sap10 single mutant (lacking SAP10) and sap9,10 double mutant (lacking both SAP9 and SAP10), as well as the parent strain CAI4 (URA-) were used in these experiments, [43], [44]. Strains were grown in YPD broth (Difco Laboratories, Detroit, MI) overnight at 30°C with shaking and cells were equilibrated in fresh media to an optical density of 1.0 at OD600. High purity Hst-5, proteinase K, PMSF and pepstatin A were purchased from Sigma (Sigma-Aldrich Chemical, St. Louis, MO). Histatin-5 was reconstituted in 1 mM phosphate-buffered saline (PBS) and used at a final concentration of 150 µg/ml (within the range of physiological salivary concentration) in all experiments unless otherwise stated. All experiments were performed on at least three separate occasions.
The intensity of the bands on the Coomassie-stained gels was assessed by densitometric analysis using a MultiImager scanner (Bio-Rad Laboratories, Hercules California) and images analyzed with the PDQuest version 7.0 (BioRAd).

[2] = test system: C. albicans SAP null mutants; parameters: species or system Candida albicans; conditions: sap10 single mutant compared to parent strain CAI4 and SC5314 (Figure 4)
Method: as §1

Sap9 [3] = molecular target: T1, Sap9 (Candida albicans, UniProt Q59SU1); conditions: MALDI-TOF/TOF MS peptide mapping
T1 sequence (Q59SU1 18-520): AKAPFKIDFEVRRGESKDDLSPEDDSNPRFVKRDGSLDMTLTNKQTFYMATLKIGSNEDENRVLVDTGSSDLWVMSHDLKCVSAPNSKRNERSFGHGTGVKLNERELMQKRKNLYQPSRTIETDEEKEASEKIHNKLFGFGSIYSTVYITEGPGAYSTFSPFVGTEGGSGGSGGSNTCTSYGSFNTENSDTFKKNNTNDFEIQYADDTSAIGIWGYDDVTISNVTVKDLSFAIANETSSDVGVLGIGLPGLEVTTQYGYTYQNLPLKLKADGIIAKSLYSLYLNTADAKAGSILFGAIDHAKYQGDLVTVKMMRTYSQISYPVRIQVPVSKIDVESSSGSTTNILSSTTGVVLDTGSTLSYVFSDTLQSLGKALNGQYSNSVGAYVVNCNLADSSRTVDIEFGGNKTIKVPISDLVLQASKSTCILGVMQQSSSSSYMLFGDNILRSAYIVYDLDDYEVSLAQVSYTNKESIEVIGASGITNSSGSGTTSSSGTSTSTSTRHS
Text: The recombinant proteases Sap9 and Sap10 were produced in Pichia pastoris as described previously, [45]. Briefly, P. pastoris strain GS115 was transformed with the expression plasmid pKJ113 carrying truncated SAP9 and SAP10 versions lacking signal peptide- and GPI anchor consensus- encoding sequences. Proteases were recovered from culture supernatants and purified via anion exchange chromatography. Activity of proteases was verified by using a standard fluorescence casein based assay (Molecular Probes). Purified proteases (0.05, 0.1, 0.25 and 0.5 µg) were incubated with Hst-5 for 2 h. Following, samples were processed as described above.
Supernatants from the various degradation reactions were subjected to peptide mapping in order to determine the sequences of cleaved fragments, identify cleavage sites on the Hst-5 as well as other cleavage products that may not be visible by electrophoresis. […] Peptide samples were mixed with saturated α-cyano-4-hydroxycinnamic acid in acetonitrile∶trifluoroacetic acid 0.1% (1∶2 v/v) then measured on an Ultraflex MALDI-ToF/ToF device using flexControl 3.0 for data collection and flexAnalysis 3.0 for spectra analysis and peaklist generation (Bruker Daltonics GmbH, Germany). […]

Sap5 [4] = molecular target: Sap5 (Candida albicans, UniProt P43094); conditions: data not shown
Sap5 (Candida albicans, UniProt P43094), sequence (P43094 77-418): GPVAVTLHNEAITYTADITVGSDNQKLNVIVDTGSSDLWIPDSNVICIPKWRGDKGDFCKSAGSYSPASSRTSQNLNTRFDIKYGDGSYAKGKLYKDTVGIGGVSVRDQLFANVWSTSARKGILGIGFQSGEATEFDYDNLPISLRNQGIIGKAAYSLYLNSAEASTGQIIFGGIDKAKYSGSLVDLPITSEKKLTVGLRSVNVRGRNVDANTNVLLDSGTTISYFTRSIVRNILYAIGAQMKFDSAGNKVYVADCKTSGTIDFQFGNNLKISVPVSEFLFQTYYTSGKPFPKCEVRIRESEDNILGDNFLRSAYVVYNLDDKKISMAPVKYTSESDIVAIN

C. albicans cells = experiment: Inhibition of C. albicans degradation of Hst-5 by protease inhibitors; assay type: cell-based, Candida albicans; conditions: 1 mM inhibitor in the degradation assay; SDS-PAGE (Figure 3B)
proteinase K = proteinase K (Parengyodontium album, UniProt P06873); experiment: Inhibition of proteinase K degradation of Hst-5 by protease inhibitors; assay type: biochemical; parameters: purchased Sigma (Sigma-Aldrich Chemical, St. Louis, MO); conditions: 1 mM inhibitor; SDS-PAGE (Figure 3A)
proteinase K, sequence (P06873 106-384): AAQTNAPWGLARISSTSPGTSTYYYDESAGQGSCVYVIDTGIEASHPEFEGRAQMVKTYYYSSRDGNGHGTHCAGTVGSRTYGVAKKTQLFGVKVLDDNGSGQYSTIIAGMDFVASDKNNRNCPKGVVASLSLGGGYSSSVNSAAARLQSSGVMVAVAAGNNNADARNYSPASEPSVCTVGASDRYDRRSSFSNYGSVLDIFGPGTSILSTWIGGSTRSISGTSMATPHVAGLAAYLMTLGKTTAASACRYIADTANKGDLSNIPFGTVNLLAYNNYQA

Sap10 = Sap10 (Candida albicans, UniProt Q5A651); experiment: Inhibition of Sap10 degradation of Hst-5; assay type: biochemical; parameters: made in house; host or cells: Pichia pastoris GS115 (plasmid pKJ113); conditions: purified Sap10 protease; SDS-PAGE (Figure 3D)
Sap10, sequence (Q5A651 21-429): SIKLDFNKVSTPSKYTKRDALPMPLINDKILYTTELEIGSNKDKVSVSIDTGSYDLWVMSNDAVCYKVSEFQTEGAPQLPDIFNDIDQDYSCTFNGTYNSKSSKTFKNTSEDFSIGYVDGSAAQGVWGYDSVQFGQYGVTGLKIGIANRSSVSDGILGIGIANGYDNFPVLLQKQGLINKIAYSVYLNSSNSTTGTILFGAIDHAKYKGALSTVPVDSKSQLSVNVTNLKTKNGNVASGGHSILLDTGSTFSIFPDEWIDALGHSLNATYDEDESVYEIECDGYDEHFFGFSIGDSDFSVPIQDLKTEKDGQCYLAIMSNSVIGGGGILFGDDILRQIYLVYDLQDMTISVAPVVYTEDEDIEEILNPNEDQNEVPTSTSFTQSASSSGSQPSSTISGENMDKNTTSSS
Text: (§2) Following, samples were processed as described above.

Sap9 [5] = molecular target: T1, Sap9; experiment: Inhibition of Sap9 degradation of Hst-5; assay type: biochemical; parameters: made in house; host or cells: Pichia pastoris GS115 (plasmid pKJ113); conditions: purified Sap9 protease; SDS-PAGE (Figure 3D)
Text: as §2

Sap5 [6] = experiment: Sap5 protease; conditions: C. albicans, up to 2 h
[7] = C. albicans whole cells (SC5314) in PBS, 2×10^8 cells/ml; conditions: 37°C, up to 2 h
Sap9 [8] = experiment: purified recombinant Sap9 protease; conditions: C. albicans, up to 2 h
[9] = C. albicans cells in PBS with pepstatin A; conditions: 37°C, up to 2 h
[10] = C. albicans whole cells (2×10^8 cells/ml) in PBS; conditions: Candida albicans, 37°C, up to 2 h

Compound: C[C@H](NC(=O)[C@H](Cc1cnc[nH]1)NC(=O)[C@H](CO)NC(=O)[C@@H](N)CC(=O)O)C(=O)N[C@@H](CCCCN)C(=O)N[C@@H](CCCNC(=N)N)C(=O)N[C@@H](Cc1cnc[nH]1)C(=O)N[C@@H](Cc1cnc[nH]1)C(=O)NCC(=O)N[C@@H](Cc1ccc(O)cc1)C(=O)N[C@@H](CCCCN)C(=O)N[C@@H](CCCNC(=N)N)C(=O)N[C@@H](CCCCN)C(=O)N[C@@H](Cc1ccccc1)C(=O)N[C@@H](Cc1cnc[nH]1)C(=O)N[C@@H](CCC(=O)O)C(=O)N[C@@H](CCCCN)C(=O)N[C@@H](Cc1cnc[nH]1)C(=O)N[C@@H](Cc1cnc[nH]1)C(=O)N[C@@H](CO)C(=O)N[C@@H](Cc1cnc[nH]1)C(=O)N[C@@H](CCCNC(=N)N)C(=O)NCC(=O)N[C@@H](Cc1ccc(O)cc1)C(=O)O [Hst-5, Histatin-5]
- degradation of Hst-5 by S. cerevisiae (Saccharomyces cerevisiae): significant enhanced degradation
- degradation of Hst-5 by cell-free supernatants [1]: significantly less degradation; also recorded: Minimal degradation
- degradation of Hst-5 by C. glabrata (Candida glabrata): significant enhanced degradation
- degradation of Hst-5 by C. albicans (C. albicans whole cells; 1×10^2 cells/ml and below, physiological concentrations of Hst-5): unable to degrade
- degradation of Hst-5 by C. albicans (C. albicans whole cells; 1×10^6 cells/ml, 2 h 37°C, SDS-PAGE): no degradation
- degradation of Hst-5 by C. albicans (C. albicans whole cells; 2×10^9 cells/ml, 2 h 37°C, SDS-PAGE): significant degradation
- degradation of Hst-5 by C. albicans over time (C. albicans whole cells; 20 mins incubation at 37°C, SDS-PAGE, lower weight product): Minor degradation
- degradation of Hst-5 by C. albicans over time (C. albicans whole cells; 1 h and 2 h incubation at 37°C, SDS-PAGE): significantly increasing level of degradation
- time in which C. albicans degrades Hst-5 (C. albicans whole cells; C. albicans cells, 37°C, PBS, SDS-PAGE (Figure 2A)): ≤ 20 min
- degradation of Hst-5 by C. albicans cells (C. albicans whole cells; Hst-5 150 µg/ml in PBS with 100 µl C. albicans cells (2×10^8 cells/ml unless stated), 2 h 37°C, SDS-PAGE, densitometry, at least three occasions): efficiently and rapidly degrade
- level of degradation versus Hst-5 concentration (C. albicans whole cells; Hst-5 50–200 µg/ml, data not shown): inversely proportional to Hst-5 concentration
- degradation of Hst-5 by sap10 mutant [2]: some degree of inhibition
- cleavage site of Sap9 on Hst-5 (Sap9 [3]): Lys13
- degradation of Hst-5 by Sap5 purified protease (Sap5 [4]): did not degrade

Compound: O=S(=O)(F)Cc1ccccc1 [PMSF]
- inhibition of C. albicans degradation of Hst-5 (C. albicans cells): not and failed to inhibit
- inhibition of proteinase K degradation of Hst-5 (proteinase K): inhibition of degradation; also recorded: inhibited

Compound: CC(C)CC(=O)N[C@H](C(=O)N[C@H](C(=O)N[C@@H](CC(C)C)[C@@H](O)CC(=O)N[C@@H](C)C(=O)N[C@@H](CC(C)C)[C@@H](O)CC(=O)O)C(C)C)C(C)C [pepstatin A] (Isovaleryl-VV[Sta]A[Sta]-OH)
- inhibition of Sap10 degradation of Hst-5 (Sap10): inhibition of degradation; also recorded: inhibited
- inhibition of C. albicans degradation of Hst-5 (C. albicans cells): inhibition of C. albicans degradation; also recorded: resulted in inhibition of degradation; also recorded: salvaged Hst-5 from degradation
- inhibition of Sap9 degradation of Hst-5 (Sap9 [5]): inhibition of degradation; also recorded: inhibited

Compound: DSHAKRHHGYKRKFHEKHHSHRGY
- not cleaved (Sap5 [6]): did not degrade Hst-5
- cleaved bond [7]: R12-Lys13; also recorded: K17-H18
- cleaved bond (Sap9 [8]): R12-Lys13
- not cleaved [9]: salvaged Hst-5 from degradation
- cleaved bond [10]: K17-H18
